Holding throughout (assay type): cell-based
In data set [1] the test system is Leishmania donovani. Nature of the data set: Intramacrophage Leishmania donovani assay (Assay 1), average number of amastigotes per cell (potency readout). The conditions noted are these: THP-1, 96 h, amastigotes in PMA-differentiated THP-1 macrophages, 96 h incubation, read-out: pEC50 value against Leishmania donovani (converted). Here is the method: Assay 1. Intramacrophage Leishmania donovani Assay
The intramacrophage Leishmania assay was performed using a modified version of the method described in De Rycker et al. (Antimicrob Agents Chemother. 2013 July; 57(7):2913-22. Comparison of a high-throughput high-content intracellular Leishmania donovani assay with an axenic amastigote assay. De Rycker M, Hallyburton I, Thomas J, Campbell L, Wyllie S, Joshi D, Cameron S, Gilbert I H, Wyatt P G, Frearson J A, Fairlamb A H, Gray D W.). Procedure: 350 nl of compound was pre-dispensed into 384 well sterile intermediary plates. For single point screening, amphotericin B was added to all wells of column 24 as a positive control (final concentration 2 μM) and DMSO to column 23. For potency determinations, ten-point, one in three dilution curves were created with the highest concentration being 50 μM and on each plate a control curve of amphotericin B was included. Controls were as follows: columns 11 and 12: DMSO, columns 23 and 24: amphotericin B (final concentration 2 μM). To the intermediary plates, 35 μl of THP-1 media was added and plates were shaken for >5 min to ensure complete mixing. THP-1 cells (8,000 per well, 50 μl) were plated into black clear-bottom 384 well plates (Corning) in presence of 20 nM PMA. After 20 min at RT, the plates were incubated at 37° C. under 5% CO2 in a humidified incubator for 75 h. The cells were then washed with […] sterile phosphate buffered saline (PBS) supplemented with 1 mM CaCl2, 0.5 mM MgCl2, 0.1% (w/v) bovine serum albumin (PBS-A) and amastigotes were added to all wells at a multiplicity of infection of 5 (40,000 amastigotes per well). After 40 min at RT, plates were returned to the incubator. Amastigotes were incubated in the presence of THP-1 macrophages for 16 h. Any remaining extracellular amastigotes were subsequently removed with an overflow wash of 1 mL PBS-A per well (wash buffer is being aspirated from the top of the well as it is being dispensed) followed by addition of 25 μl of the compound pre-dilutions using a Fluidx Ipette-pro pipetting station. The final dilution of each compound was 200-fold. Plates were incubated for 96 h and then washed (250 μl PBS-A) and fixed (4% (v/v) formaldehyde-PBS, 30 min, RT). After fixation, the wells were washed with 250 μl PBS, stained (10 μg/mL DAPI, 0.4 μg mL-1 HCS Cellmask Deep Red in PBS+0.1% (v/v) Triton X-100, 30 min, RT) and washed with 250 μl PBS. Finally, PBS+0.05% (v/v) thimerosal was added to the wells, the plates were sealed and imaged on a high-content microscope (GE IN Cell 2000) using a 10× objective. Image analysis was carried out with GE IN Cell Analyzer 1000 Workstation using the “Multi Target Analysis” module. Settings for segmentation were as follows: nuclei: minimum area: 142.384 μm2, sensitivity: 81, method: top-hat; cells: characteristic area: 2500 μm2, sensitivity: 60, method: multiscale top-hat; organelles (amastigotes): granule size 1-3, 3 scales, sensitivity: 90, detection in entire cell. For each well, i) THP-1 cell count (cytotoxicity readout) and ii) average number of amastigotes per cell (potency readout) were calculated, both in terms of pEC50 values.

For data set [2], the system named is Leishmania donovani. Nature of the data set: Leishmania donovani intracellular assay (Assay 5). To be noted: THP-1, 96 h, eGFP amastigotes in THP-1 cells, 96 h incubation, read-out: pEC50 value against Leishmania donovani (converted). Here is the method:
(§1) Assay 5. Leishmania donovani Intracellular Assay
(§2) Compounds were dispensed into black 384-well assay plates (Greiner) by acoustic dispensing (LabCyte ECHO). For potency determinations, eleven-point, one in three dilution curves were generated, with a top concentration of 50 μM. THP-1 human monocytes cells were dispensed in T225 tissue culture flasks and differentiated using 30 nM of PMA, after 24 hours they were infected overnight using Leishmania donovani expressing Green Fluorescent Protein (eGFP) amastigotes in the same T225 tissue culture flasks at a multiplicity of infection of 10. Next, any remaining free amastigotes were washed away with PBS and the infected THP-1 cells were harvested by trypsinisation. The infected cells were then plated into 384-well plates containing the compounds to be tested, at 3000 cells per well in RPMI media with 2% FBS and 25 mM Sodium bicarbonate. After 96 h incubation at 37° C. in presence of 5% CO2, the plates were fixed with 4% formaldehyde for 30 minutes, washed with PBS and stained with 0.1 mg/mL of DAPI for 30 minutes and washed again with PBS. The plates were imaged on a Perkin Elmer Opera high-content imaging system using a 20× air objective with two expositions, one for DAPI stain and other for eGFP. Images were analysed using the Acapella building blocks system (Perkin Elmer). The image analysis algorithm first identified the THP-1 nuclei followed by demarcation of the cytoplasm and identification of intracellular amastigotes. This algorithm reported mean number of parasites per THP-1 cell, the percentage of infected THP-1 cells and the total number of THP-1 cells.

In a further data set the test system is THP-1 cells. Nature of the data set: Leishmania donovani intracellular assay (Assay 5), THP-1 cytotoxicity. The conditions noted are these: human, 96 h incubation, read-out: cytotoxicity against THP-1 cells, pEC50 (converted). Here is the method: as §1, §2
The test system of a further data set is RnH9c2 cells. Nature of the data set: Trypanosoma cruzi intracellular assay (Assay 2), host cell cytotoxicity. To be noted: rat, H9C2 cardiomyocytes infected with Trypanosoma cruzi, 72 h incubation, read-out: cytotoxicity against RnH9c2 cells, pEC50 (converted). Here is the method:
(§3) Compounds were dispensed into black 384-well assay plates (Greiner) by acoustic dispensing (LabCyte ECHO). For potency determinations, eleven-point, one in three dilution curves were generated, with a top concentration of 50 μM. H9C2 rat cardiomyocytes cells were dispensed in T225 tissue culture flasks and after 4 hours they were infected during 18 hours with T. cruzi trypomastigotes in the same T225 tissue culture flasks at a multiplicity of infection of 1. Next, any remaining free trypomastigotes were washed away with PBS and the infected H9C2 cells were harvested by trypsinisation. The infected H9C2 cells were then plated into 384-well plates containing the compounds to be tested, at 2500 cells per well in DMEM media with 2% FBS, 1% Penicillin/Streptomicin, 2 mM L-Glutamine, 1 mM Na Pyruvate and 25 mM HEPES. After 72 h incubation at 37° C. in presence of 5% CO2, the plates were fixed and stained with 4% formaldehyde and 2 μM Draq5 for 3 hours at room temperature. The plates were imaged on a Perkin Elmer Opera high-content imaging system using a 20× air objective. Images were analyzed using the Acapella building blocks system (Perkin Elmer). The image analysis algorithm first identified the H9C2 nuclei followed by demarcation of the cytoplasm and identification of intracellular amastigotes. This algorithm reported mean number of parasites per H9C2 cell, the percentage of infected H9C2 cells and the total number of H9C2 cells.

A further data set relates to Trypanosoma cruzi. Nature of the data set: Trypanosoma cruzi intracellular assay (Assay 2). The conditions noted are these: infected H9C2 rat cardiomyocytes, 72 h incubation, read-out: pEC50 value against Trypanosoma cruzi (converted). Here is the method:
as §3

With `O=C(Nc1cccc(-c2ccn3c(-c4ccccc4)cnc3n2)c1)N1CCCC1` [Example 2, N-(3-(3-phenylimidazo[1,2-a]pyrimidin-7-yl)phenyl)pyrrolidine-1-carboxamide], the values for the EC50 in the data set with Leishmania donovani [1] and in the data set with Leishmania donovani [2] were 0.251 to 10 µM and 0.126 to 10 µM, respectively. Besides, in the data set with THP-1 cells, the EC50 at 96 h was 12.6 to 50.1 µM.
Taken in the same sequence, the figures for `O=C(Nc1ccc(F)c(-c2ccn3c(-c4ccccc4)cnc3n2)c1)N1CCCC1` [Example 3, N-(4-fluoro-3-(3-phenylimidazo[1,2-a]pyrimidin-7-yl)phenyl)pyrrolidine-1-carboxamide] were 0.251 to 10 µM, 0.126 to 10 µM and 12.6 to 50.1 µM.
The corresponding values for `O=C(Nc1ccc(F)c(-c2ccn3c(N4CCCCC4)cnc3n2)c1)N1CCCC1` [Example 5, N-(4-fluoro-3-(3-(piperidin-1-yl)imidazo[1,2-a]pyrimidin-7-yl)phenyl)pyrrolidine-1-carboxamide] are 0.251 to 10 µM, 0.126 to 10 µM and 12.6 to 50.1 µM.
As for `O=C(Nc1ccc(F)c(-c2cnn3c(-c4ccccc4)cnc3n2)c1)N1CCCC1` [Example 7, N-(4-fluoro-3-(7-phenylimidazo[1,2-b][1,2,4]triazin-3-yl)phenyl)pyrrolidine-1-carboxamide], the EC50 in the data set on Leishmania donovani [1] was 0.251 to 10 µM. Besides, in the data set on RnH9c2 cells, the EC50 at 72 h is 20 µM.
On to `O=C(Nc1ccc(F)c(-c2ccn3ccnc3n2)c1)N1CCCC1` [Example 16, N-(4-fluoro-3-(imidazo[1,2-a]pyrimidin-7-yl)phenyl)pyrrolidine-1-carboxamide], for which the results for the EC50 in the data set with Leishmania donovani [1] and in the data set with Leishmania donovani [2] were 12.6 to 20 µM and 12.6 to 39.8 µM, respectively. The EC50 at 96 h with THP-1 cells is 12.6 to 50.1 µM.
Regarding `CC(C)Cc1cnc2nc(-c3cc(NC(=O)N4CCCC4)ccc3F)ccn12` [Example 17, N-(4-fluoro-3-(3-isobutylimidazo[1,2-a]pyrimidin-7-yl)phenyl)pyrrolidine-1-carboxamide], the EC50 was 0.251 to 10 µM with Leishmania donovani [1] and 0.126 to 10 µM in the data set with Leishmania donovani [2]. The EC50 at 72 h in the data set with RnH9c2 cells is 5.01 µM.
Taken in the same sequence, the figures for `O=C(Nc1ccc(F)c(-c2ccn3c(C4CCOCC4)cnc3n2)c1)N1CCCC1` [Example 19, N-(4-fluoro-3-(3-(tetrahydro-2H-pyran-4-yl)imidazo[1,2-a]pyrimidin-7-yl)phenyl)pyrrolidine-1-carboxamide] were 0.251 to 10 µM, 0.126 to 10 µM and 39.8 µM.
As for `O=C(Nc1ccc(F)c(-c2ccn3c(N4CCOCC4)cnc3n2)c1)N1CC[C@H](F)C1` [Example 23a], the EC50 with Leishmania donovani [1] is more than 50.1 µM; with Leishmania donovani [2], more than 50.1 µM; in the data set on Trypanosoma cruzi, 31.6 µM.
On to `O=C(Nc1ccc(F)c(-c2ccn3c(-c4ccccn4)cnc3n2)c1)N1CCCC1` [Example 26, N-(4-fluoro-3-(3-(pyridin-2-yl)imidazo[1,2-a]pyrimidin-7-yl)phenyl)pyrrolidine-1-carboxamide], for which the EC50 in the data set with Leishmania donovani [1] is 0.251 to 10 µM; with Leishmania donovani [2] it was 0.126 to 10 µM. For the same molecule, the EC50 at 72 h in the data set on RnH9c2 cells is 39.8 µM. In addition, in the data set with THP-1 cells, the EC50 at 96 h is 12.6 to 50.1 µM.
Regarding `C[C@H]1CCCN1C(=O)Nc1ccc(F)c(-c2ccn3c(N4CCOCC4)cnc3n2)c1` [Example 33a], the EC50 in the data set with Leishmania donovani [1] was more than 50.1 µM; with Leishmania donovani [2] it was 12.6 to 39.8 µM; in the data set with Trypanosoma cruzi, 12.6 µM.
As to `Cc1cccc(-c2cnc3nc(-c4cc(NC(=O)N5CCCC5)ccc4F)ccn23)n1` [Example 37, N-(4-fluoro-3-(3-(6-methylpyridin-2-yl)imidazo[1,2-a]pyrimidin-7-yl)phenyl)pyrrolidine-1-carboxamide], in the data set on RnH9c2 cells, the EC50 at 72 h is 25.1 µM. Also, the EC50 with Leishmania donovani [2] is 0.126 to 10 µM. For the same molecule, the EC50 at 96 h in the data set with THP-1 cells was 12.6 to 50.1 µM.
Consider `CC1CN(C(=O)Nc2ccc(F)c(-c3ccn4c(N5CCOCC5)cnc4n3)c2)C1` [Example 49, N-(4-fluoro-3-(3-morpholinoimidazo[1,2-a]pyrimidin-7-yl)phenyl)-3-methylazetidine-1-carboxamide], for which the values for the EC50 with Leishmania donovani [1] and in the data set on Leishmania donovani [2] were 12.6 to 20 µM and 0.126 to 10 µM, respectively.
The corresponding values for `O=C(Nc1ccc(F)c(-c2cc(C(=O)N3CCCC3)n3ccnc3n2)c1)N1CCCC1` [Example 50, N-(4-fluoro-3-(5-(pyrrolidine-1-carbonyl)imidazo[1,2-a]pyrimidin-7-yl)phenyl)pyrrolidine-1-carboxamide] are more than 50.1 µM and 12.6 to 39.8 µM.

Values taken from US10479792B2, “Compounds” (GlaxoSmithKline Intellectual Property Development Limited, priority 2015, dated 2019).
